This is an account of results in patent US12686673B2 (Blueprint Medicines Corporation, priority 2020, dated 2026).

Where a name gives a salt, the structure may show the parent alone. Read-outs that look alike come from different tables or passages of the source.

The IC50 is the concentration at which inhibition is half-maximal.

What all share (assay type): cell-based
Assay [1] concerns the target EGFR (A767_dupASV) expressing Ba/F3 stable cell line (Homo sapiens, UniProt P00533, DUP767-769, cells depend on it). Description: Cellular proliferation (Alamar Blue) assay, EGFR A767_dupASV Ba/F3. To be noted: 72 hr, read-out: A767 IC50. The gist of the method: (§1)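 Proliferation of mutant-dependent Ba/F3 lines is measured by Alamar Blue reduction over 3 hours, following a 72 hr incubation with test compound spanning 10-0.0005 μM final in threefold dilutions. Cells go in at 15,000 per well in RPMI containing 10% FBS the day before dosing.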
On the technique in general: The colour change of resazurin is a common sign of viable cells or microbes.

Assay [2] concerns the target EGFR(D770_N771insSVD) expressing Ba/F3 stable cell line (Homo sapiens, UniProt P00533, DUP768-770, cells depend on it). Description: Cellular proliferation (Alamar Blue) assay, EGFR D770_N771insSVD Ba/F3. The note with it: 72 hr, read-out: D770 IC50. The gist of the method:
as §1

Assay [3] relates to A431 cells. Description: Cellular proliferation (Alamar Blue) assay, A431.
Assay [4] has as its target HER2 (A775_G776insYVMA) expressing Ba/F3 stable cell line (Homo sapiens, UniProt P04626, DUP772-775, cells depend on it). Description: Cellular proliferation (Alamar Blue) assay, HER2 A775_G776insYVMA Ba/F3. To be noted: 72 hr, read-out: YVMA IC50. A digest of the protocol: as §1
The target in assay [5] is EGFR (H773insNPH) expressing Ba/F3 stable cell line (Homo sapiens, UniProt P00533, DUP771-773, cells depend on it). As to the kind of experiment: Cellular proliferation (Alamar Blue) assay, EGFR H773insNPH Ba/F3. The note with it: 72 hr, read-out: NPH IC50. As for the experimental part: • 1. EGFR(D770_N771insSVD) expressing Ba/F3 stable cell line • 2. EGFR (A767_dupASV) expressing Ba/F3 stable cell line • 3. A431 cells • 4. EGFR (H773insNPH) expressing Ba/F3 stable cell line • 5. HER2 (A775_G776insYVMA) expressing Ba/F3 stable cell line Assay Procedure: • 1. Seed cells at 5000 for A431 and 15,000 cells for Ba/F3 in 100 μL/well in complete media (for A431: DMEM with […] and for Ba/F3 cells: RPMI with 10% FBS) in 96-well tissue culture plate. Leave outer wells without cells for background measurements. Incubate at 37 degree Celsius in […] humidified incubator for 16-18 hours. • 2. Add 0.025 ml of 5× concentration compound dilution or DMSO control. Final compound concentration range is 10-0.0005 μM prepared in 3-fold serial dilutions. Incubate for 72 hr at 37 degree Celsius in […] humidified incubator. • 3. Add 0.0125 ml Alamar Blue™ reagent to each well with multi-channel pipette and tap gently on each side of the plate to mix. Incubate for 3 hours at 37 degree Celsius in 5% CO2 humidified incubator. • 4. […] Data analysis was performed using XLfit 5.5.0.5.
Sequence of EGFR (H773insNPH) expressing Ba/F3 stable cell line (P00533 with tags, fused parts or gaps DUP771-773): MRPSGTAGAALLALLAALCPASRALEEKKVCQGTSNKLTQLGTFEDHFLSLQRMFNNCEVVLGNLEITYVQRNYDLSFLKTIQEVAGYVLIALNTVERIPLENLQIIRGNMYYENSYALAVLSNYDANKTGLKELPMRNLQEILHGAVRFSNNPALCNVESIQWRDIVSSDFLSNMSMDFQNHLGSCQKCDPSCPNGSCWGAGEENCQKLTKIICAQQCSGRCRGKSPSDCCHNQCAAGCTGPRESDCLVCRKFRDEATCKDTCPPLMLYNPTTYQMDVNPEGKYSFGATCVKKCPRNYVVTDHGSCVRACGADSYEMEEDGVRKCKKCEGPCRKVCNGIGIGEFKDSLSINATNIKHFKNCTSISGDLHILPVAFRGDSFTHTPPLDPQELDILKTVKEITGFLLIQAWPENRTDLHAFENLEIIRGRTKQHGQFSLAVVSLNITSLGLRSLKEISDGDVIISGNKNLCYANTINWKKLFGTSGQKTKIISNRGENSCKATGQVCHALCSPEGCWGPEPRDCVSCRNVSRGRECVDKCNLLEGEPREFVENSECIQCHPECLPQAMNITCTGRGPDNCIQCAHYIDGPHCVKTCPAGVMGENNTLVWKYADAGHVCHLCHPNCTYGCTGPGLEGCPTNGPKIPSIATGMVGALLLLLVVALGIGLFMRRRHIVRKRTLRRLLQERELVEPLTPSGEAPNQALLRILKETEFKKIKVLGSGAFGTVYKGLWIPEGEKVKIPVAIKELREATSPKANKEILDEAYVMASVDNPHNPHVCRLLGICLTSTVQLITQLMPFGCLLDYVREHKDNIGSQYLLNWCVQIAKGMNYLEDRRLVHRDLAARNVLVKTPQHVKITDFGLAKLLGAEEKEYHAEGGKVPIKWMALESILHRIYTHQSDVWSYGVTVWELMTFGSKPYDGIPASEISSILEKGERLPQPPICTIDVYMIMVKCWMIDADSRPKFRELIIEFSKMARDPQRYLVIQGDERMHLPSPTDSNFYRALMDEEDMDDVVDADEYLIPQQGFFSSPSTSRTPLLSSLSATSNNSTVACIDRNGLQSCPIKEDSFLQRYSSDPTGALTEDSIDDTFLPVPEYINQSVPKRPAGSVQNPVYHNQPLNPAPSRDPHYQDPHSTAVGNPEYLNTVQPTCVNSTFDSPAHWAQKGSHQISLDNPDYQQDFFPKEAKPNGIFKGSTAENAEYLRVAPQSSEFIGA

The mark [6] stands for this setting: Homo sapiens, A-431; A431 cells, Alamar Blue, 72 hr; read-out: A431 IC50.
Where [7] appears, read: Homo sapiens, A-431; A431 cells, 72 hr, Alamar Blue; read-out: A431 IC50.

Sequence of EGFR (A767_dupASV) expressing Ba/F3 stable cell line (P00533 with tags, fused parts or gaps DUP767-769): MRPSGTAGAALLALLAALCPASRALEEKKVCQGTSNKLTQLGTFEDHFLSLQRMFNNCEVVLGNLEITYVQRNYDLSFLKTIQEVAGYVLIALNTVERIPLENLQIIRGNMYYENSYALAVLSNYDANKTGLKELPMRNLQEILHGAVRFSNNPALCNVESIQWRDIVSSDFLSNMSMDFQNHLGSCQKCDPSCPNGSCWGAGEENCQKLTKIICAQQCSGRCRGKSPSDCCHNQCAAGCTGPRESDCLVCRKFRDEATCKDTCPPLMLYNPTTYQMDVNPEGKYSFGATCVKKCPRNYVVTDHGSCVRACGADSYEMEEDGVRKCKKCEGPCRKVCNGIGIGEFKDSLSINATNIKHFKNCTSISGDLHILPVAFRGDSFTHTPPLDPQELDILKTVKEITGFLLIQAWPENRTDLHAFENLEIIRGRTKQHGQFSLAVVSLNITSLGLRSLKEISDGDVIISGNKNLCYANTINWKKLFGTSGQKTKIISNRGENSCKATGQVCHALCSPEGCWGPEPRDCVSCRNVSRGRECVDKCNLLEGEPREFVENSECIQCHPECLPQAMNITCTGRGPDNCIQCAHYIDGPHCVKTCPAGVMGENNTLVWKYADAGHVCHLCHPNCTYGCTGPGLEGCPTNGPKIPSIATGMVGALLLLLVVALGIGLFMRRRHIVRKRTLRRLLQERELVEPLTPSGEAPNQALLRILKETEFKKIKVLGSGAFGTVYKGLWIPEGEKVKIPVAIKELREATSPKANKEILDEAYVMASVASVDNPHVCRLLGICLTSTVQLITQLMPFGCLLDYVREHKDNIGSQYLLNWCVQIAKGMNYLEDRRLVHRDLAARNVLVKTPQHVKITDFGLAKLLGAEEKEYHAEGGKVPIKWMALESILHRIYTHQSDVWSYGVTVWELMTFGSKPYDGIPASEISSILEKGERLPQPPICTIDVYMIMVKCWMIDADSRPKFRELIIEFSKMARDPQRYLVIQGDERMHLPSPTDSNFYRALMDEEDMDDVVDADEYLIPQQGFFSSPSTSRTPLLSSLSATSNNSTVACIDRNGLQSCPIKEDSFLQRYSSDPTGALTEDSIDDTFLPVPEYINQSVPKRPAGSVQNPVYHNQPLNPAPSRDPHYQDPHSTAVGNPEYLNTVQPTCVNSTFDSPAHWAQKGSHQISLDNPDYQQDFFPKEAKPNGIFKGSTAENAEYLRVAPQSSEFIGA
Sequence of HER2 (A775_G776insYVMA) expressing Ba/F3 stable cell line (P04626 with tags, fused parts or gaps DUP772-775): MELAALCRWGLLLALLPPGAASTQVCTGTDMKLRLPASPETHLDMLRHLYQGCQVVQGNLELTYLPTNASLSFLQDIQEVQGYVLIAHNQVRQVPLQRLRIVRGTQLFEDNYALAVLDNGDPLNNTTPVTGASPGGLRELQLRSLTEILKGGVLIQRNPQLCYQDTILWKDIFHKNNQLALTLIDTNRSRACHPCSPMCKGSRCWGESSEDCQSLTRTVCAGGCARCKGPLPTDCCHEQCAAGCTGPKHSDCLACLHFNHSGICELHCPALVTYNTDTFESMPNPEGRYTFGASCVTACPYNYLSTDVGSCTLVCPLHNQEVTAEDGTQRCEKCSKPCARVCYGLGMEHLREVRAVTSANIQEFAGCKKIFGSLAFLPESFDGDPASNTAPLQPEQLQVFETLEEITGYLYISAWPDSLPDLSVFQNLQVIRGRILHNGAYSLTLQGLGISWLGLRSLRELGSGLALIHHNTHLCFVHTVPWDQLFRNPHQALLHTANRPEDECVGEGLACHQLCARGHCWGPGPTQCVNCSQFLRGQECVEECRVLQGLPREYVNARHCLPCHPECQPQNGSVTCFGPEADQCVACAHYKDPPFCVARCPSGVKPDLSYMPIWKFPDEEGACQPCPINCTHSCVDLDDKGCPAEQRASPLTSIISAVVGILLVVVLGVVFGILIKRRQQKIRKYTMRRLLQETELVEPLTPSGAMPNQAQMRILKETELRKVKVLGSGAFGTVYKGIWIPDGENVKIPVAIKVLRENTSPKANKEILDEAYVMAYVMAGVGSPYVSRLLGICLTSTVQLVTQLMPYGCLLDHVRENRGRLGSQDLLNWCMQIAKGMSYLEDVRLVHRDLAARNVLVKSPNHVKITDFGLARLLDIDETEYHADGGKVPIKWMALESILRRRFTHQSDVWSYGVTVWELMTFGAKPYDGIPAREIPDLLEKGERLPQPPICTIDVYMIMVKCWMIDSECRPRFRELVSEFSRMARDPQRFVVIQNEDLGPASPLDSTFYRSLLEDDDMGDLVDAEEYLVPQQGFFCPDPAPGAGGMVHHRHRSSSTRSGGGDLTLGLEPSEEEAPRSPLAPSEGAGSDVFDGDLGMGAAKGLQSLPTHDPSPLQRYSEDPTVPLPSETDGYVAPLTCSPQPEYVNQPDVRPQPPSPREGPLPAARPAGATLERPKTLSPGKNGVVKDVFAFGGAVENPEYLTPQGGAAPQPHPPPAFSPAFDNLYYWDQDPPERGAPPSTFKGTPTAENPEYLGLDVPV
Sequence of EGFR(D770_N771insSVD) expressing Ba/F3 stable cell line (P00533 with tags, fused parts or gaps DUP768-770): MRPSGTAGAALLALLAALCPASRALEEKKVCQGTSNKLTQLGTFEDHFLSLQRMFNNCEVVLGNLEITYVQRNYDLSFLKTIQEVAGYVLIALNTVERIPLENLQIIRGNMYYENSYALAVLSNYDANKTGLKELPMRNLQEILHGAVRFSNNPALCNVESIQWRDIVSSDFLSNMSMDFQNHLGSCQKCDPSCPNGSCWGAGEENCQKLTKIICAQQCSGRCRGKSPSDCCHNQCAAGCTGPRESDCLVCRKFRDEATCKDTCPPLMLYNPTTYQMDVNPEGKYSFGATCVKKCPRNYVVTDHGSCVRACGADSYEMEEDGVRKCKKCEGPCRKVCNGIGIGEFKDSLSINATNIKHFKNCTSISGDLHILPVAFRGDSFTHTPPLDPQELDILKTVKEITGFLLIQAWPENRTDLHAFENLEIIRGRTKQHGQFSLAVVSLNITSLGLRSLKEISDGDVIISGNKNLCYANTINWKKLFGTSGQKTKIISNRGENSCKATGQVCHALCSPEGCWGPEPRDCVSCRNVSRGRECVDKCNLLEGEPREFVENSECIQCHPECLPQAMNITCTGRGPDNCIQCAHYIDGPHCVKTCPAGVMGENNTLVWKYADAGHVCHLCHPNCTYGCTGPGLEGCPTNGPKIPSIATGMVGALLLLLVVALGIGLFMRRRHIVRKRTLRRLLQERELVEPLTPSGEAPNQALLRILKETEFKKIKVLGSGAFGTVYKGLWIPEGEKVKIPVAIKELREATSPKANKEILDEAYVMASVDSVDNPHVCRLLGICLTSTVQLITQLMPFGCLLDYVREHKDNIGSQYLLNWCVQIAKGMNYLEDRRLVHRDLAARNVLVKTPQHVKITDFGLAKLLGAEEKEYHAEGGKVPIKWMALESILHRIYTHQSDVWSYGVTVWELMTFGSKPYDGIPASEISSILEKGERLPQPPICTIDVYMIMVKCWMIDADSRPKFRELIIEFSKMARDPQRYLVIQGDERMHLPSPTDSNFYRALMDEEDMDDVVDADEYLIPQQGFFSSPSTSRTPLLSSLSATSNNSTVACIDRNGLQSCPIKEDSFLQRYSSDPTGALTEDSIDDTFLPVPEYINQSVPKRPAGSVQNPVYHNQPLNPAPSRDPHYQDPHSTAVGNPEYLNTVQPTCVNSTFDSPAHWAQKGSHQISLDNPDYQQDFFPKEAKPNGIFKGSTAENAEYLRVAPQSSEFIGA

Consider `C=CC(=O)Nc1ccc(F)c(Nc2nc(Nc3cnn(C4CCN(C)CC4)c3)ncc2Cl)c1` [Compound 14, N-(3-((5-chloro-2-((1-(1-methylpiperidin-4-yl)-1H-pyrazol-4-yl)amino)pyrimidin-4-yl)amino)-4-fluorophenyl)acrylamide], for which the GI50 was determined as 170 nM in assay [1], 320 nM in assay [2], 756 nM in assay [4] and 192 nM in assay [5]. In assay [3] (setting [6]), the half-inhibitory concentration (IC50) stood at 1830 nM.
Consider `C=C(F)C(=O)N1CCCC(Nc2nc(Nc3cnn(C)c3)ncc2Cl)C1` (stereo not shown) [Compound 25, 1-(3-((5-chloro-2-((1-methyl-1H-pyrazol-4-yl)amino)pyrimidin-4-yl)amino)piperidin-1-yl)-2-fluoroprop-2-en-1-one], for which the GI50 in assay [1], in assay [2] and in assay [5] was over 10000 nM throughout. The IC50 in assay [3] (setting [6]) was over 10000 nM.
In the case of `C=CC(=O)Nc1ccc(F)c(Nc2nc(Nc3cnn(CC(C)(C)O)c3)ncc2Cl)c1` [Compound 26, N-(3-((5-chloro-2-((1-(2-hydroxy-2-methylpropyl)-1H-pyrazol-4-yl)amino)pyrimidin-4-yl)amino)-4-fluorophenyl)acrylamide], the GI50 in assay [1] worked out at 2450 nM; in assay [2], 4860 nM; in assay [5] it was 2090 nM. Also, the IC50 in assay [3] (setting [6]) was determined as 7410 nM.
With `C=CC(=O)Nc1cccc(Nc2nc(Nc3cnn(C)c3)ncc2NC(=O)c2ccccc2)c1` [Compound 28, N-(4-((3-acrylamidophenyl)amino)-2-((1-methyl-1H-pyrazol-4-yl)amino)pyrimidin-5-yl)benzamide], the GI50 worked out at 2240 nM in assay [1], 3130 nM in assay [2] and 3010 nM in assay [5]. Further, the IC50 in assay [3] (setting [6]) is over 10000 nM.
Regarding `C=CC(=O)Nc1cccc(Nc2nc(Nc3cnn(C)c3)ncc2C(=O)NC(C)c2ccccc2)c1` (stereo not shown) [Compound 34, 4-((3-acrylamidophenyl)amino)-2-((1-methyl-1H-pyrazol-4-yl)amino)-N-(1-phenylethyl)pyrimidine-5-carboxamide], the GI50 in assay [1] was 9310 nM; in assay [2], 9520 nM; in assay [5], over 10000 nM. In addition, in assay [3] (setting [6]), the IC50 is over 10000 nM.
As to `C=CC(=O)Nc1ccc(F)c(Nc2nc(Nc3cnn(C)c3)ncc2-c2ccc(C(F)(F)F)cc2)c1` [Compound 37, N-(4-fluoro-3-((2-((1-methyl-1H-pyrazol-4-yl)amino)-5-(4-(trifluoromethyl)phenyl)pyrimidin-4-yl)amino)phenyl)acrylamide], the GI50 was found to be 73 nM in assay [1], 34 nM in assay [2], 974 nM in assay [4] and 85 nM in assay [5]. The IC50 in assay [3] (setting [6]) came to 185 nM.
In the case of `COc1cc(N2CCCCC2)ccc1Nc1ncc(C(=O)N(C)c2ccccc2)c(Nc2cccc(NC(=O)/C=C/CN(C)C)c2)n1` [Compound 52, (E)-4-((3-(4-(dimethylamino)but-2-enamido)phenyl)amino)-2-((2-methoxy-4-(piperidin-1-yl)phenyl)amino)-N-methyl-N-phenylpyrimidine-5-carboxamide], the GI50 in assay [1] is 982 nM; in assay [2], 3260 nM; in assay [5], over 10000 nM. In addition, in assay [3] (setting [6]), the IC50 stood at 6560 nM.
For `CN(C)C/C=C/C(=O)Nc1cccc(Nc2nc(Nc3cn(C)nc3Cl)ncc2-c2ccc(C(F)(F)F)cc2)c1` [Compound 53, (E)-N-(3-((2-((3-chloro-1-methyl-1H-pyrazol-4-yl)amino)-5-(4-(trifluoromethyl)phenyl)pyrimidin-4-yl)amino)phenyl)-4-(dimethylamino)but-2-enamide], the GI50 came out at 1020 nM in assay [1], 873 nM in assay [2] and 1890 nM in assay [5]. In addition, the IC50 in assay [3] (setting [6]) was found to be 7300 nM.
As to `CN(C)C/C=C/C(=O)Nc1cccc(Nc2nc(Nc3cn(C)nc3Cl)ncc2C(F)(F)F)c1` [Compound 54, (E)-N-(3-((2-((3-chloro-1-methyl-1H-pyrazol-4-yl)amino)-5-(trifluoromethyl)pyrimidin-4-yl)amino)phenyl)-4-(dimethylamino)but-2-enamide], the GI50 was determined as 1040 nM in assay [1], 296 nM in assay [2] and 380 nM in assay [5]. For the same compound, the IC50 in assay [3] (setting [6]) stood at 4530 nM.
Take `C=CC(=O)Nc1ccc(F)c(Nc2nc(Nc3cnn(C)c3)ncc2-c2cncc(C(F)(F)F)c2)c1` [Compound 56, N-(4-fluoro-3-((2-((1-methyl-1H-pyrazol-4-yl)amino)-5-(5-(trifluoromethyl)pyridin-3-yl)pyrimidin-4-yl)amino)phenyl)acrylamide]: the IC50 in assay [3] (setting [6]) amounted to 34 nM. In addition, the GI50 stood at 92 nM in assay [4] and 41 nM in assay [5].
On to `C=CC(=O)Nc1ccc(F)c(Nc2nc(Nc3cnn(C)c3)ncc2-c2ccc(C)nc2)c1` [Compound 66, N-(4-fluoro-3-((2-((1-methyl-1H-pyrazol-4-yl)amino)-5-(6-methylpyridin-3-yl)pyrimidin-4-yl)amino)phenyl)acrylamide], for which the GI50 in assay [1] came to 35 nM; in assay [4], 50 nM; in assay [5], 73 nM. For the same compound, the IC50 in assay [3] (setting [6]) is 138 nM.
`C=CC(=O)Nc1ccc(F)c(Nc2nc(Nc3cnn(C)c3)ncc2-c2cncc(Cl)c2)c1` [Compound 102, N-(3-((5-(5-chloropyridin-3-yl)-2-((1-methyl-1H-pyrazol-4-yl)amino)pyrimidin-4-yl)amino)-4-fluorophenyl)acrylamide]: the values for the GI50 in assay [1], in assay [2] and in assay [5] were 31 nM, 35 nM and 48 nM, respectively. Further, the IC50 in assay [3] (setting [6]) was found to be 168 nM.
`C=CC(=O)Nc1ccc(F)c(Nc2nc(Nc3cnn(C)c3)ncc2-c2cncc(C(F)F)c2)c1` [Compound 110, N-(3-((5-(5-(difluoromethyl)pyridin-3-yl)-2-((1-methyl-1H-pyrazol-4-yl)amino)pyrimidin-4-yl)amino)-4-fluorophenyl)acrylamide]: the GI50 in assay [2] is 34 nM; in assay [4], 30 nM; in assay [5] it was 34 nM. For the same compound, the half-maximal inhibitory concentration (IC50) in assay [3] (setting [6]) turned out to be 309 nM.
In the case of `C=CC(=O)Nc1cccc(Nc2nc(Nc3cnn(C)c3)ncc2-c2ccc(OC)nc2)c1` [Compound 118, N-(3-((5-(6-methoxypyridin-3-yl)-2-((1-methyl-1H-pyrazol-4-yl)amino)pyrimidin-4-yl)amino)phenyl)acrylamide trifluoroacetate], the GI50 came out at 36 nM in assay [1], 57 nM in assay [4] and 29 nM in assay [5]. The IC50 in assay [3] (setting [6]) was found to be 163 nM.
With `C=CC(=O)Nc1ccc(F)c(Nc2nc(Nc3cnn(C)c3)ncc2-c2cccc(N(C)CCN(C)C)c2)c1` [Compound 125, N-(3-((5-(3-((2-(dimethylamino)ethyl)(methyl)amino)phenyl)-2-((1-methyl-1H-pyrazol-4-yl)amino)pyrimidin-4-yl)amino)-4-fluorophenyl)acrylamide], the GI50 in assay [1], in assay [2] and in assay [5] was over 10000 nM each time. Moreover, the IC50 in assay [3] (setting [6]) is over 10000 nM.
Turning to `C=CC(=O)Nc1ccc(F)c(Nc2nc(Nc3cnn(C)c3)ncc2-c2ccc3nccn3c2)c1` [Compound 133, N-(4-fluoro-3-((5-(imidazo[1,2-a]pyridin-6-yl)-2-((1-methyl-1H-pyrazol-4-yl)amino)pyrimidin-4-yl)amino)phenyl)acrylamide trifluoroacetate], the GI50 in assay [1] was determined as 388 nM; in assay [2], 294 nM; in assay [5], 323 nM. Moreover, in assay [3] (setting [6]), the IC50 turned out to be 158 nM.
Turning to `Cn1cc(Nc2ncc(-c3ccc(C(F)(F)F)cc3)c(Nc3cc(NC(=O)CCl)ccc3F)n2)cn1` [Compound 252, 2-chloro-N-[4-fluoro-3-({2-[(1-methyl-1H-pyrazol-4-yl)amino]-5-[4-(trifluoromethyl)phenyl]pyrimidin-4-yl}amino)phenyl]acetamide], the GI50 in assay [1] turned out to be 5960 nM; in assay [2] it was 1420 nM; in assay [5], 2810 nM. Besides, the IC50 in assay [3] (setting [7]) turned out to be 1180 nM.
As to `C=CS(=O)(=O)Nc1ccc(F)c(Nc2nc(Nc3cnn(C)c3)ncc2-c2ccc(C(F)(F)F)cc2)c1` [Compound 253, N-[4-fluoro-3-({2-[(1-methyl-1H-pyrazol-4-yl)amino]-5-[4-(trifluoromethyl)phenyl]pyrimidin-4-yl}amino)phenyl] ethene-1-sulfonamide], the GI50 is 8750 nM in assay [1], 8450 nM in assay [2] and over 10000 nM in assay [5]. For the same compound, the IC50 in assay [3] (setting [7]) was 3980 nM.
